Legend:
[1] = Inhibition of Saccharomyces cerevisiae alpha-glucosidase for 15 mins by multiplate reader method using 0.7 mM p-nitrophenyl-alpha-D-glucopyranoside as substrate
[2] = Competitive inhibition of Saccharomyces cerevisiae alpha-glucosidase by multiplate reader method using p-nitrophenyl-alpha-D-glucopyranoside as substrate
[3] = Non-Competitive inhibition of Saccharomyces cerevisiae alpha-glucosidase by multiplate reader method using p-nitrophenyl-alpha-D-glucopyranoside as substrate
[4] = Mixed inhibition of Saccharomyces cerevisiae alpha-glucosidase by multiplate reader method using p-nitrophenyl-alpha-D-glucopyranoside as substrate

IC50 ([1]; read-out: IC50) [nM] | SMILES | other results
1500 | O=c1[nH]c(-c2ccc(O)c(O)c2)nc2ccccc12 | 
10400 | O=c1[nH]c(-c2ccccc2O)nc2ccccc12 | 
16200 | O=c1[nH]c(-c2cc(Cl)ccc2Cl)nc2ccccc12 | 
1900 | COc1ccc(-c2nc3ccccc3c(=O)[nH]2)cc1O | 
300 | CCOc1cc(-c2nc3ccccc3c(=O)[nH]2)ccc1O | Ki [2]: 430 nM
2350 | O=c1[nH]c(-c2cc(O)ccc2O)nc2ccccc12 | 
1150 | COc1ccc(O)c(-c2nc3ccccc3c(=O)[nH]2)c1 | 
14600 | COc1cccc(-c2nc3ccccc3c(=O)[nH]2)c1O | 

The next lines start with the compound.

SMILES | IC50 ([1]; read-out: IC50) [nM] | other results
O=c1[nH]c(-c2cccc([N+](=O)[O-])c2)nc2ccccc12 | 18000 | 
O=c1[nH]c(-c2ccccc2Cl)nc2ccccc12 | 1300 | 
COc1cc(-c2nc3ccccc3c(=O)[nH]2)cc(OC)c1OC | 118000 | 
O=c1[nH]c(-c2c(O)cccc2Br)nc2ccccc12 | 9730 | 
CCOc1ccc(-c2nc3ccccc3c(=O)[nH]2)cc1 | 3250 | 
CN(C)c1ccc(-c2nc(O)c3ccccc3n2)cc1 | 2750 | 
C[C@H]1O[C@H](O[C@H]2[C@H](O)[C@@H](O)[C@@H](O[C@H]3[C@H](O)[C@@H](O)C(O)O[C@@H]3CO)O[C@@H]2CO)[C@H](O)[C@@H](O)[C@@H]1N[C@H]1C=C(CO)[C@@H](O)[C@H](O)[C@H]1O (stereo partly drawn) [ACARBOSE] |  | Ki [2]: 736000 nM
COc1ccc(-c2nc(O)c3ccccc3n2)cc1 | 400 | Ki [3]: 250 nM
COc1ccc(-c2nc(O)c3ccccc3n2)cc1OC | 860 | Ki [2]: 283 nM
Cc1ccc(-c2nc3ccccc3c(=O)[nH]2)cc1 | 76000 | 
O=c1[nH]c(-c2ccc([N+](=O)[O-])cc2)nc2ccccc12 | 20000 | IC50 [1]: Not Active
O=c1[nH]c(-c2ccc(O)cc2)nc2ccccc12 | 10500 | 
CCOc1ccccc1-c1nc2ccccc2c(=O)[nH]1 | 570 | Ki [4]: 6600 nM
O=c1[nH]c(-c2c(Cl)cccc2Cl)nc2ccccc12 | 68100 | 
O=c1[nH]c(-c2cccc(O)c2)nc2ccccc12 |  | IC50 [1]: Not Active

From ChEMBL document CHEMBL3627644, “2-Arylquinazolin-4(3H)-ones: A new class of α-glucosidase inhibitors” (Bioorg Med Chem, 2015)
